{"source": "patent US20170281732A1", "about": "“METHODS OF TREATING MILD BRAIN INJURY” (OXEIA BIOPHARMACEUTICALS, INC., priority 2014, published 2017)", "key": {"ischemic brain injury": {"test_system": "ischemic brain injury", "settings": "in vivo; cited from earlier work"}, "[1]": {"test_system": "rat model of Parkinson's disease", "settings": "cited from earlier work"}, "[2]": {"settings": "Matsumoto et al., 2001, Biochem. Biophys. Res. Commun. 284:655-659; cited from earlier work"}, "GHS-R": {"molecular_target": "GHS-R (Homo sapiens, UniProt Q92847)", "sequence (Q92847 whole entry)": "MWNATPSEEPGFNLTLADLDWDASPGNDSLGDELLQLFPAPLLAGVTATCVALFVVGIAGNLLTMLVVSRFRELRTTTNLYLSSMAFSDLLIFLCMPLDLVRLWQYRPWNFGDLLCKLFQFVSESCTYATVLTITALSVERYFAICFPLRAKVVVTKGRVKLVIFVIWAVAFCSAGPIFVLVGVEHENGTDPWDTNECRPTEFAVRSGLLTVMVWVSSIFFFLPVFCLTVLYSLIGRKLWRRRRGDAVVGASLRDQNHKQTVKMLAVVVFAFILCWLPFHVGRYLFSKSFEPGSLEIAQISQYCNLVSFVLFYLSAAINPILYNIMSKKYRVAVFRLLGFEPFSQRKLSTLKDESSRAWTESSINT", "assay": "GHS-R antagonist activity in a cell based assay (Table 4, Exemplary GHS-R Modulating Compounds)"}, "[3]": {"test_system": "oxidative burst in inflammatory cells following mBI", "assay": "Oxidative burst in brain inflammatory cells following mBI (controlled cortical impact, DHR 123 flow cytometry)", "assay_type": "in vivo, C57/B6 mice", "settings": "subcutaneous ghrelin after mBI, compared to mBI without treatment; mice", "procedure": "Ghrelin variant administration reduces oxidative burst in inflammatory cells following mBI. Since no well-accepted animal model exists for concussions, a very small cerebral lesion that closely mimics mBI is used as a model of mBI. C57/B6 mice anesthetized with 5% isoflurane in oxygen (1.7 L/min) are given 0.3 mg/kg buprenorphine subcutaneously for analgesia prior to infliction of the mild brain injury. Anesthesia is assessed by paw pinch reflex. After creating a burr hole through the dura with a dental drill, a lesion using a controlled cortical impactor (CCI) is used to create injury 1 mm lateral and posterior to the bregma (5.0 mm/sec at a depth of 1.0 mm).\nAnimals are separated into three treatment groups: 1) Sham, 2) mBI, and 3) mBI plus ghrelin variant. A variety of doses can be tested depending upon the particular ghrelin variant. For example, 1 to 50 μg at one or more time points. As one example, treatment with subcutaneous ghrelin variant: 1 dose of 10 μg following mBI and additional dose 10 μg 1 hour after. Brain tissue is harvested at 2-8 hours, preferably about 6 hours post-injury. […] The fluorescence is then measured (AFU), higher intensity means greater oxidative burst and, therefore greater concentration or amount of ROS. […] Oxidative burst, which is a marker for ROS, can be measured by respiratory burst using flow cytometry (e.g., FL1 channel with 488-nm laser)."}}}
{"compound": "C=CC[C@]12CCCN1C(=O)CNC2=O", "note": "[NNZ-2591, cyclo-L-glycyl-L-2-allylproline]", "values": [{"measurement": "neuroprotection after ischemic brain injury", "setting": "ischemic brain injury", "result": "neuroprotective"}, {"measurement": "motor function", "setting": "[1]", "result": "improves motor function"}]}
{"compound": "CCCCCCCCOC[C@H](NC(=O)CCCCN)C(=O)N[C@@H](Cc1ccccc1)C(=O)N[C@@H](CC(C)C)C(=O)NCCN", "note": "[5-aminopentanoyl-Ser(Octyl)-Phe-Leu-aminoethylamide]", "values": [{"measurement": "ghrelin activity", "setting": "[2]", "result": "potent ghrelin activity"}]}
{"compound": "CCN(CC)CCCS(=O)(=O)N[C@H](CCc1ccccc1)c1nc(-c2ccc3nccn3c2)n[nH]1", "note": "[Compound 134, 3-Diethylamino-propane-1-sulfonic acid {(R)-1-[5-(1H-imidazo[1,2,-a]pyridin-6-yl)-2H-[1,2,4]triazol-3-yl]-3-phenyl-propyl}-amide]", "values": [{"measurement": "Ki", "setting": "GHS-R", "result": "100 to 500", "unit": "nM"}]}
{"compound": "Ghrelin (GSSFLSPEHQRVQQRKESKKPPAKLQPR)", "values": [{"measurement": "Oxidative burst as quantified by Arbitrary Fluorescence Units (AFU)", "setting": "[3]", "result": "reduced the oxidative burst compared to mBI"}]}
